From PubChem BioAssay (NCI)
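Briefly, cells in 96-well plates were exposed to five compound concentrations for 48 h, and endpoints were estimated by linear interpolation. GI50: concentration for 50% inhibition of growth. TGI marks complete inhibition of growth.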

Experiments:
Test in all cases: growth of human tumour cells (NCI), 48 h
HOP-62 NSCLC = system: HOP-62 NSCLC
SF-268 CNS = system: SF-268 CNS
SN12C renal = system: SN12C renal
COLO 205 colon = system: COLO 205 colon
PC-3 prostate = system: PC-3 prostate
SK-MEL-2 melanoma = system: SK-MEL-2 melanoma
MALME-3M melanoma = system: MALME-3M melanoma
TK-10 renal = system: TK-10 renal
SF-539 CNS = system: SF-539 CNS
ACHN renal = system: ACHN renal
MDA-MB-468 breast = system: MDA-MB-468 breast
HT29 colon = system: HT29 colon
IGROV1 ovarian = system: IGROV1 ovarian
SR leukemia = system: SR leukemia
SK-MEL-5 melanoma = system: SK-MEL-5 melanoma
SNB-19 CNS = system: SNB-19 CNS
SNB-75 CNS = system: SNB-75 CNS
MDA-MB-231 breast = system: MDA-MB-231 breast
A498 renal = system: A498 renal
NCI-H522 lung = system: NCI-H522 lung
KM12 colon = system: KM12 colon
HCT-15 colon = system: HCT-15 colon
RPMI-8226 leukemia = system: RPMI-8226 leukemia
SW-620 colon = system: SW-620 colon
M14 melanoma = system: M14 melanoma
NCI-H460 lung = system: NCI-H460 lung
HCT-116 colon = system: HCT-116 colon
RXF 393 renal = system: RXF 393 renal
NCI/ADR-RES ovarian = system: NCI/ADR-RES ovarian
BT-549 breast = system: BT-549 breast
HOP-92 NSCLC = system: HOP-92 NSCLC
SK-OV-3 ovarian = system: SK-OV-3 ovarian
786-0 renal = system: 786-0 renal
NCI-H23 lung = system: NCI-H23 lung
U251 CNS = system: U251 CNS
UACC-62 melanoma = system: UACC-62 melanoma
MCF7 breast = system: MCF7 breast
DU-145 prostate = system: DU-145 prostate
K-562 leukemia = system: K-562 leukemia
SK-MEL-28 melanoma = system: SK-MEL-28 melanoma
MOLT-4 leukemia = system: MOLT-4 leukemia
LOX IMVI melanoma = system: LOX IMVI melanoma
HCC-2998 colon = system: HCC-2998 colon
SF-295 CNS = system: SF-295 CNS
NCI-H226 lung = system: NCI-H226 lung
OVCAR-5 ovarian = system: OVCAR-5 ovarian
HL-60(TB) leukemia = system: HL-60(TB) leukemia
OVCAR-8 ovarian = system: OVCAR-8 ovarian
UO-31 renal = system: UO-31 renal
EKVX NSCLC = system: EKVX NSCLC
A549 NSCLC = system: A549 NSCLC
MDA-MB-435 = system: MDA-MB-435
OVCAR-3 ovarian = system: OVCAR-3 ovarian
CCRF-CEM leukemia = system: CCRF-CEM leukemia
UACC-257 melanoma = system: UACC-257 melanoma
T-47D breast = system: T-47D breast
OVCAR-4 ovarian = system: OVCAR-4 ovarian
CAKI-1 renal = system: CAKI-1 renal
HS 578T breast = system: HS 578T breast

Compound: Cc1cccc(/C=C/c2ccc(NC(=S)NCCCCN(C)C)cc2)c1
- GI50 (HOP-62 NSCLC): 19 µM
- TGI (HOP-62 NSCLC): 37.9 µM
- GI50 (SF-268 CNS): 13.8 µM
- TGI (SF-268 CNS): 28.5 µM
- GI50 (SN12C renal): 14.9 µM
- TGI (SN12C renal): 29 µM
- GI50 (COLO 205 colon): 15.6 µM
- TGI (COLO 205 colon): 33.5 µM
- GI50 (PC-3 prostate): 14.2 µM
- TGI (PC-3 prostate): 32.2 µM
- GI50 (SK-MEL-2 melanoma): 18.5 µM
- TGI (SK-MEL-2 melanoma): 34.9 µM
- GI50 (MALME-3M melanoma): 15.8 µM
- TGI (MALME-3M melanoma): 29.6 µM
- GI50 (TK-10 renal): 20.7 µM
- TGI (TK-10 renal): 38.5 µM
- GI50 (SF-539 CNS): 13.4 µM
- TGI (SF-539 CNS): 26.3 µM
- GI50 (ACHN renal): 16.3 µM
- TGI (ACHN renal): 29.9 µM
- GI50 (MDA-MB-468 breast): 12.7 µM
- TGI (MDA-MB-468 breast): 26.6 µM
- GI50 (HT29 colon): 5.38 µM
- TGI (HT29 colon): 29.9 µM
- GI50 (IGROV1 ovarian): 16.6 µM
- TGI (IGROV1 ovarian): 31.2 µM
- GI50 (SR leukemia): 12.2 µM
- TGI (SR leukemia): 39.2 µM
- GI50 (SK-MEL-5 melanoma): 15.9 µM
- TGI (SK-MEL-5 melanoma): 29.4 µM
- GI50 (SNB-19 CNS): 16.1 µM
- TGI (SNB-19 CNS): 29.8 µM
- GI50 (SNB-75 CNS): 9.05 µM
- TGI (SNB-75 CNS): 21.9 µM
- GI50 (MDA-MB-231 breast): 12.9 µM
- TGI (MDA-MB-231 breast): 26.6 µM
- GI50 (A498 renal): 13.5 µM
- TGI (A498 renal): 27.4 µM
- GI50 (NCI-H522 lung): 15.9 µM
- TGI (NCI-H522 lung): 33.5 µM
- GI50 (KM12 colon): 16.5 µM
- TGI (KM12 colon): 31.9 µM
- GI50 (HCT-15 colon): 11.9 µM
- TGI (HCT-15 colon): 25.1 µM
- GI50 (RPMI-8226 leukemia): 20.1 µM
- TGI (RPMI-8226 leukemia): 72.4 µM
- GI50 (SW-620 colon): 14.8 µM
- TGI (SW-620 colon): 29.5 µM
- GI50 (M14 melanoma): 15.4 µM
- TGI (M14 melanoma): 31.6 µM
- GI50 (NCI-H460 lung): 12.8 µM
- TGI (NCI-H460 lung): 27.3 µM
- GI50 (HCT-116 colon): 11 µM
- TGI (HCT-116 colon): 29.6 µM
- GI50 (RXF 393 renal): 11.3 µM
- TGI (RXF 393 renal): 24.2 µM
- GI50 (NCI/ADR-RES ovarian): 16.3 µM
- TGI (NCI/ADR-RES ovarian): 32.3 µM
- GI50 (BT-549 breast): 15.3 µM
- TGI (BT-549 breast): 29.9 µM
- GI50 (HOP-92 NSCLC): 8.39 µM
- TGI (HOP-92 NSCLC): 24.3 µM
- GI50 (SK-OV-3 ovarian): 19.7 µM
- TGI (SK-OV-3 ovarian): 36.4 µM
- GI50 (786-0 renal): 14.9 µM
- TGI (786-0 renal): 30.1 µM
- GI50 (NCI-H23 lung): 16.1 µM
- TGI (NCI-H23 lung): 31.2 µM
- GI50 (U251 CNS): 16.1 µM
- TGI (U251 CNS): 33.7 µM
- GI50 (UACC-62 melanoma): 15.9 µM
- TGI (UACC-62 melanoma): 29.6 µM
- GI50 (MCF7 breast): 11.8 µM
- TGI (MCF7 breast): 27.5 µM
- GI50 (DU-145 prostate): 15.1 µM
- TGI (DU-145 prostate): 29.2 µM
- GI50 (K-562 leukemia): 3.96 µM
- TGI (K-562 leukemia): > 100 µM
- GI50 (SK-MEL-28 melanoma): 15.6 µM
- TGI (SK-MEL-28 melanoma): 29.3 µM
- GI50 (MOLT-4 leukemia): 13.4 µM
- TGI (MOLT-4 leukemia): 37.5 µM
- GI50 (LOX IMVI melanoma): 11.6 µM
- TGI (LOX IMVI melanoma): 25.4 µM
- GI50 (HCC-2998 colon): 15.1 µM
- TGI (HCC-2998 colon): 29.9 µM
- GI50 (SF-295 CNS): 16.2 µM
- TGI (SF-295 CNS): 31.5 µM
- GI50 (NCI-H226 lung): 14.9 µM
- TGI (NCI-H226 lung): 31.2 µM
- GI50 (OVCAR-5 ovarian): 15.5 µM
- TGI (OVCAR-5 ovarian): 29.5 µM
- GI50 (HL-60(TB) leukemia): 8.41 µM
- TGI (HL-60(TB) leukemia): 29.7 µM
- GI50 (OVCAR-8 ovarian): 18.9 µM
- TGI (OVCAR-8 ovarian): 38.1 µM
- GI50 (UO-31 renal): 14.2 µM
- TGI (UO-31 renal): 27.3 µM
- GI50 (EKVX NSCLC): 16.2 µM
- TGI (EKVX NSCLC): 31.2 µM
- GI50 (A549 NSCLC): 18.4 µM
- TGI (A549 NSCLC): 39.8 µM
- GI50 (MDA-MB-435): 13.9 µM
- TGI (MDA-MB-435): 27.7 µM
- GI50 (OVCAR-3 ovarian): 12.7 µM
- TGI (OVCAR-3 ovarian): 26.1 µM
- GI50 (CCRF-CEM leukemia): 11.7 µM
- TGI (CCRF-CEM leukemia): 37.3 µM
- GI50 (UACC-257 melanoma): 18.1 µM
- TGI (UACC-257 melanoma): 34.8 µM
- GI50 (T-47D breast): 16.9 µM
- TGI (T-47D breast): 36.9 µM
- GI50 (OVCAR-4 ovarian): 14.8 µM
- TGI (OVCAR-4 ovarian): 29 µM
- GI50 (CAKI-1 renal): 14.5 µM
- TGI (CAKI-1 renal): 27.9 µM
- GI50 (HS 578T breast): 16.6 µM
- TGI (HS 578T breast): 38.4 µM
